Values joined by “and” are separate entries in the source; they are usually repeats but may differ in a detail not shown here. Equal entries are not always repeated.
Columns and labels:
Genome polyprotein [1] = target: T1, Genome polyprotein (dengue virus type 2, UniProt P29990); format: functional, Thailand/16681/1984
Genome polyprotein [2] = target: T1, Genome polyprotein; format: functional, Thailand/16681/1984; remark: listed apart in the source

T1 sequence (P29990 1346-1475 limits assumed): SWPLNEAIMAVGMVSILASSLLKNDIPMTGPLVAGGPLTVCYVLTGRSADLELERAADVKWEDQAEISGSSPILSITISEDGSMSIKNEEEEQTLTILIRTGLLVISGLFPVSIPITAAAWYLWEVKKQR
T1 sequence (P29990 1476-2093 limits assumed): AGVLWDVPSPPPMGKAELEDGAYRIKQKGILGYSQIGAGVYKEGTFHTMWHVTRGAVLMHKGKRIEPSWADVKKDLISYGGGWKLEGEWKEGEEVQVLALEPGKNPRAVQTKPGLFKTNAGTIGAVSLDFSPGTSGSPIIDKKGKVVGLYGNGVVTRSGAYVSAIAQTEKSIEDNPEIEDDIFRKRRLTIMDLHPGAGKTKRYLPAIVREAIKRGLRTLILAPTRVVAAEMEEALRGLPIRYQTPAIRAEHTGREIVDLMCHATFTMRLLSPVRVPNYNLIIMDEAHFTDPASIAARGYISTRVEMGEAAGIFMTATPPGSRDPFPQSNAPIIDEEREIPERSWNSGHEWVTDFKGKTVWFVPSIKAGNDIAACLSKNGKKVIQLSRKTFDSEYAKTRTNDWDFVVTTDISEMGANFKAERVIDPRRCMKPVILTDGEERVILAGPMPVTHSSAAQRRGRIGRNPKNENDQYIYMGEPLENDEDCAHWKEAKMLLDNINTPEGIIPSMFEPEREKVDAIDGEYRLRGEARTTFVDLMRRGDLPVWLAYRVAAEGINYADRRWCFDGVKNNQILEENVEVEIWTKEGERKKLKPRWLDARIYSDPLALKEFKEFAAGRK

| Structure (SMILES) | IC50 (Genome polyprotein [1]) | IC50 (Genome polyprotein [2]) |
| --- | --- | --- |
| O=C(Nc1ccc2c(c1)CNC2)c1ccc2c(c1)NCCO2 | > 100 µM | > 99.5 µM |
| C[C@@H](N)c1ccc(NC(=O)c2cc(Cl)cc3[nH]ncc23)cc1 | > 100 µM | > 99.5 µM |
| Cc1c(C(=O)Nc2cc(CCCN)ccn2)cc(C2CCC2)n1C | > 100 µM | > 99.5 µM |
| CN(C(=O)c1cc(Cl)cc2[nH]ncc12)c1ccc2c(c1)CNC2 | > 100 µM | > 99.5 µM |
| O=C(Nc1ccc2c(c1)CNC2)c1ccccc1-n1cccc1 | > 100 µM | > 99.5 µM |
| O=C(Nc1ccc2c(c1)CNC2)c1ccn[nH]1 | > 100 µM | > 99.5 µM |
| Cc1cc(NC(=O)c2cc(C3CC3)n(C)c2C)ncc1S(N)(=O)=O | > 100 µM | > 99.5 µM |
| O=C(Nc1ccc2c(c1)CNC2)C1CCCCC1 | > 100 µM | > 99.5 µM |
| NCc1cc(NC(=O)c2cc(Cl)cc(NC(=O)OCc3ccccc3)c2)cc(C2=CC[C@H](C(=O)O)CC2)c1 | > 100 µM | > 99.5 µM |
| CCOC(=O)N1CCC[C@H]1c1cccc(-c2ccc3[nH]c(C(=O)O)cc3c2)c1 | > 100 µM | > 99.5 µM |
| CNC(=O)[C@H](Nc1ccc2c(c1)CNC2)c1cccc2[nH]ncc12 | > 100 µM | 81.3 µM |
| NCc1nc2cc(Cl)ccc2n1Cc1ccc(-c2nn[nH]n2)cc1 | > 100 µM | > 99.5 µM |
| FC(F)(F)Oc1cc(Cl)cc2c(Cc3ccc(-c4nnn[nH]4)cc3)c[nH]c12 | 7.84 µM | 12.6 µM |
| CCCN1C(=O)[C@](C#N)(Nc2ccc3c(c2)CNC3)c2ccccc21 | > 100 µM | > 99.5 µM |
| Cc1c(C(=O)Nc2cc(C(N)=O)c3ccccc3n2)cc(C2CC2)n1C | > 100 µM | > 99.5 µM |
| O=C1Cc2c(cccc2C(=O)Nc2ccc3c(c2)CNC3)N1 | 45.6 µM and 19.1 µM | 11.8 µM and 17.4 µM and 20.7 µM |
| CNCc1ccc(NC(=O)c2cc(Cl)cc3[nH]ncc23)cc1 | > 100 µM | > 99.5 µM |
| Cc1c(C(=O)Nc2nccc3c2CNCC3)cc(C2CC2)n1C | > 100 µM | > 99.5 µM |
| Cc1c(C(=O)Nc2cc(CCCN)ccn2)cc(C2CCCCC2)n1C | > 100 µM | > 99.5 µM |
| O=C(Nc1ccc2c(c1)CNCCC2)c1cc(Cl)cc2[nH]ncc12 | 62.4 µM and 45.8 µM | 42.5 µM |
| O=C(Nc1ccc2c(c1)CNC2)c1cncc(-c2ccccc2)c1 | > 100 µM | > 99.5 µM |
| O=C(O)C1CCC2(CC1)CC(Cc1c[nH]c3ccc(Cl)cc13)C2 (stereo not drawn) | 31.4 µM | 59.2 µM |

| Structure (SMILES) | IC50 (Genome polyprotein [1]) | IC50 (Genome polyprotein [2]) |
| --- | --- | --- |
| Cc1cc(-c2ccc3[nH]c(C(=O)O)cc3c2)c(=O)n(Cc2ccccc2)c1 | > 100 µM | > 99.5 µM |
| N#Cc1ccc2[nH]cc(Cc3ccc(-c4nnn[nH]4)cc3)c2c1 | 83.8 µM | > 99.5 µM |
| O=C(Nc1ccc2c(c1)CNC2)c1c[nH]c2ncc(F)cc12 | > 100 µM | > 99.5 µM |
| O=C(O)Cc1cc2c(c(Cc3c[nH]c4ccc(Cl)cc34)c1)OCC2 | > 100 µM | > 99.5 µM |
| CCOCCCN1Cc2ccc(NC(=O)c3cc(Cl)cc4[nH]ncc34)cc2C1 | > 100 µM | > 99.5 µM |
| O=C(c1cc(Cl)cc2[nH]ncc12)N1C[C@H]2CNC[C@H]2C1 | > 100 µM | > 99.5 µM |
| Cn1nc(C(=O)Nc2ccc3c(c2)CNC3)c2cc(Br)ccc21 | > 100 µM | 89.7 µM |
| O=C(Nc1ccc2c(c1)CN(CC(F)F)C2)c1cc(Cl)cc2[nH]ncc12 | > 100 µM | 58.7 µM |
| O=C(Nc1ccc2c(c1)CNC2)c1cc(C(F)(F)F)cc2[nH]ccc12 | > 100 µM | > 99.5 µM |
| CNC(=O)[C@H](Nc1ccc2c(c1)CNC2)c1cc(Cl)cc2[nH]ncc12 | > 100 µM | > 99.5 µM |
| NCc1cc(NC(=O)c2cc(Cl)cc(NC(=O)OCc3ccccc3)c2)cc(C2=CC[C@H](C(=O)O)C2)c1 | > 100 µM | > 99.5 µM |
| O=C(Nc1ccc2c(c1)CCCN2)c1cc(Cl)cc2[nH]ncc12 | > 100 µM | > 99.5 µM |
| O=C(Nc1ccc2c(c1)CNC2)c1cc(=O)[nH]c2c(F)cccc12 | > 100 µM | > 99.5 µM |
| NCc1cccc([C@@H]2[C@H](C(=O)O)[C@H]2c2cc(N)cc(Cl)c2)c1 | > 100 µM | > 99.5 µM |
| O=C(Nc1ccc2c(c1)[C@H]1CC[C@H]2N1)c1cc(Cl)cc2[nH]ncc12 | > 100 µM | > 99.5 µM |
| O=C(NCc1ccc2c(c1)CNC2)c1cc(Cl)cc2[nH]ncc12 | > 100 µM | > 99.5 µM |
| O=C(Nc1ccc2c(c1)CCNCC2)c1cc(Cl)cc2[nH]ncc12 | > 100 µM | 47.5 µM |
| O=C(NCC1CCNCC1)c1cc(Cl)cc2[nH]ncc12 | > 100 µM | > 99.5 µM |
| O=C(Nc1ccc2c(c1)CNC2)c1cc(Br)cc2[nH]ncc12 | > 100 µM | > 99.5 µM |
| COC(=O)c1ccc2[nH]cc(Cc3ccc(-c4nnn[nH]4)cc3)c2c1 | 72.4 µM | > 99.5 µM |
| O=C(c1cc(Cl)cc2[nH]ncc12)N1CCC(C2CCNCC2)CC1 | > 100 µM | > 99.5 µM |
| O=C1NCc2ccc(NC(=O)c3cc(Cl)cc4[nH]ncc34)cc21 | > 100 µM | > 99.5 µM |

| Structure (SMILES) | IC50 (Genome polyprotein [1]) | IC50 (Genome polyprotein [2]) |
| --- | --- | --- |
| O=C(Nc1ccc2c(n1)CNC2)c1cc(Cl)cc2[nH]ncc12 | > 100 µM | > 99.5 µM |
| Cc1ccc(NC(=O)c2cc(Cl)cc3[nH]ncc23)cc1CN | > 100 µM | > 99.5 µM |
| Cc1ccc(NC(=O)c2cc(Cl)cc3[nH]ncc23)cc1N | > 100 µM | > 99.5 µM |
| NC[C@H]1CC[C@H](NC(=O)c2cc(Cl)cc3[nH]ncc23)CC1 | > 100 µM | > 99.5 µM |
| O=C(Nc1ccc2c(c1)CNC2)c1cc(Br)cc2cccnc12 | > 100 µM | > 99.5 µM |
| O=C(Nc1ccc2c(c1)CN(C(=O)C(F)(F)F)C2)c1cc(Cl)cc2[nH]ncc12 | > 100 µM | > 99.5 µM |
| Nc1nccc(C(=O)Nc2ccc3c(c2)CNC3)n1 | > 100 µM | > 99.5 µM |
| O=C(Nc1cc(Cl)cc(-c2cc(C(=O)O)n(-c3ccc(F)cc3)n2)c1)OCc1ccccc1 | 10.6 µM | 17.5 µM |
| N[C@H]1CCCc2ccc(NC(=O)c3cc(Cl)cc4[nH]ncc34)cc21 | > 100 µM | > 99.5 µM |
| N[C@H]1Cc2ccc(NC(=O)c3cc(Cl)cc4[nH]ncc34)cc2C1 | > 100 µM | > 99.5 µM |
| CNCc1cccc(NC(=O)c2cc(Cl)cc3[nH]ncc23)c1 | > 100 µM | 73.3 µM |
| Cc1ncc(Br)cc1C(=O)Nc1ccc2c(c1)CNC2 | > 100 µM | > 99.5 µM |
| CN1C(=O)[C@H](c2cc(Cl)cc(NC(=O)OCc3ccccc3)c2)N(c2cccc(-c3nn[nH]n3)c2)C1=O | 19 µM | 21.8 µM |
| CCNCc1ccc(NC(=O)c2cc(Cl)cc3[nH]ncc23)cc1 | > 100 µM | > 99.5 µM |
| N#Cc1cc(C(=O)Nc2ccc3c(c2)CNC3)cc(C(F)(F)F)c1 | > 100 µM | > 99.5 µM |
| COc1nnc(C(F)(F)F)cc1-c1ccc2[nH]c(C(=O)O)cc2c1 | > 100 µM | > 99.5 µM |
| CCc1nccn1CC(=O)Nc1ccc2c(c1)CNC2 | > 100 µM | > 99.5 µM |
| O=C(CSc1cccc(Br)c1)Nc1ccc2c(c1)CNC2 | > 100 µM | > 99.5 µM |
| NC(=O)c1[nH]c2ccc(Br)cc2c1Cc1ccc(-c2nnn[nH]2)cc1 | 26.8 µM | 54.7 µM |
| Cc1oc(C2CC2)nc1C(=O)Nc1cc(CCCN)ccn1 | > 100 µM | > 99.5 µM |

Reference: ChEMBL document CHEMBL5604063, “ASAP - DENV-2 NS2B-NS3 protease fluorescence dose response” (2024)
